Laboratory results from ChEMBL document CHEMBL5036329, “4-Methyl-1,2,3-Triazoles as N-Acetyl-Lysine Mimics Afford Potent BET Bromodomain Inhibitors with Improved Selectivity” (J Med Chem, 2021).
pKd: −log10 of the molar value.

Assays:
[1] = Microsomal stability in human liver microsomes assessed as fraction unbound measured upto 60 mins in presence of NADPH regenerating system by LC-MS analysis; format: ADME, Microsome; conditions: 1 h
[2] = biological target: T1, Bromodomain-containing protein 3 (Homo sapiens, UniProt Q15059); assay: Binding affinity to human partial length BRD3 BD1 expressed in bacterial expression system assessed as dissociation constant by BROMOscan assay
[3] = biological target: T2, Bromodomain testis-specific protein (Homo sapiens, UniProt Q58F21); assay: Binding affinity to human partial length BRDT BD1 expressed in bacterial expression system assessed as dissociation constant by BROMOscan assay
[4] = biological target: T1, Bromodomain-containing protein 3; assay: Binding affinity to human partial length BRD3 BD2 expressed in bacterial expression system assessed as dissociation constant by BROMOscan assay
[5] = biological target: T2, Bromodomain testis-specific protein; assay: Binding affinity to human partial length BRDT BD2 expressed in bacterial expression system assessed as dissociation constant by BROMOscan assay

T1 sequence (Q15059 whole entry): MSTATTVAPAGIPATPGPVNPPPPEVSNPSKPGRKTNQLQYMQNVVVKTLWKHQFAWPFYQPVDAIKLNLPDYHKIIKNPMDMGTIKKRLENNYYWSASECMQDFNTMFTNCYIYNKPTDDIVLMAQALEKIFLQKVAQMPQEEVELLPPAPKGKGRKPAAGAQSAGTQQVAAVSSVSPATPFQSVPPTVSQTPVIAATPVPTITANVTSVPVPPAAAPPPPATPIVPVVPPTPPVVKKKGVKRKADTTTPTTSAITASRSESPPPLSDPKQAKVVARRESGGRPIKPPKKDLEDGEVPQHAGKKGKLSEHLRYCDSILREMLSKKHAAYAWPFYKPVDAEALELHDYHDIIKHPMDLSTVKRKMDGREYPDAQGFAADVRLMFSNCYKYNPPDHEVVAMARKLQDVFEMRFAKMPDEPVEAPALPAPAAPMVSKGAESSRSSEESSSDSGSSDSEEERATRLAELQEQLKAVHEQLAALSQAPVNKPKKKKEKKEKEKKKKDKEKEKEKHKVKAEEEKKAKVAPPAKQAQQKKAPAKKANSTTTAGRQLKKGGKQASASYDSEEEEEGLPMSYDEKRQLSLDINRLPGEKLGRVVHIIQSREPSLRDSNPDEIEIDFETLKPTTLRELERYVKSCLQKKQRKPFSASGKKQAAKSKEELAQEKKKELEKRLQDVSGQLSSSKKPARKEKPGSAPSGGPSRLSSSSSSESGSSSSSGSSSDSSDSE

| SMILES | Fu [1] | further results |
| --- | --- | --- |
| Cc1cc(C)cc(Oc2cccc(-c3c(C)nnn3C3CCN(CCN(C)C)CC3)n2)c1 | 0.14 | pKd [2]: 7.70; pKd [3]: 7.82; pKd [4]: 6.51; pKd [5]: 6.60 |
| Cc1nnn(C2CCNCC2)c1-c1cccc(Oc2cc(C3CC3)cc(C3CC3)c2)n1 | 0.12 | – |
| Cc1nnn(C2CCNCC2)c1-c1cccc(Oc2cc(Cl)cc(Cl)c2)n1 | 0.11 | – |

Now from value to molecule, other results behind:

| Fu [1] | SMILES | further results |
| --- | --- | --- |
| 0.13 | Cc1cc(C)cc(Oc2cccc(-c3c(C)nnn3C3CCNCC3)n2)c1 | – |
| 0.08 | Cc1cc(C)cc(Nc2nccc(-c3c(-c4ccc(C(F)(F)F)cc4)ncn3C3CCN(CCN)CC3)n2)c1 | – |
| 0.13 | Cc1nnn(C2CCN(CCN(C)C)CC2)c1-c1cccc(Oc2cc(Br)ccc2Br)n1 | – |
| 0.09 | Cc1nnn(C2CCNCC2)c1-c1cccc(Oc2cc(Br)cc(Br)c2)n1 | – |
